# Patent US20060069132A1, “Azolecarboxamide herbicides” (priority 2004, published 2006)
# Assays:
# Experiment in all cases: Test E pre-/postemergence herbicide test
# barnyardgrass = type: in vivo, Echinochloa crus-galli
# Method in brief: (§1)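 Postemergence treatment targeted plants at the 1- to 4-leaf stage (2–18 cm), alongside preemergence treatment of planted seed; both used a non-phytotoxic solvent mixture with surfactant. Visual ratings, 0 = no effect to 100 = complete control, were taken 12 to 14 days later.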
# common groundsel = type: in vivo, Senecio vulgaris
# From the text: (§2) Seeds of plant species selected from bipinnate beggarticks (Bidens bipinnata L.), hairy beggarticks (Bidens radiata Thuill.), bermudagrass (Cynodon dactylon (L.) Pers.), Surinam grass (Urochloa decumbens (Staph) R. D. Webster, previously named Brachiaria decumbens Stapf), large crabgrass (Digitaria sanguinalis (L.) Scop.), green foxtail (Setaria viridis (L.) P. Beauv.), goosegrass (Eleusine indica (L.) Gaertn.), johnsongrass (Sorghum halepense (L.) Pers.), kochia (Kochia scoparia (L.) Schrad.), pitted morningglory (Ipomoea lacunosa L.), purple nutsedge (Cyperus rotundus L.), common ragweed (Ambrosia elatior L.), mustard (Brassica nigra (L.) W. D. J. Koch), guineagrass (Panicum maximum Jacq.), dallisgrass (Paspalum dilatatum Poir.), barnyardgrass (Echinochloa crus-galli (L). P. Beauv.), southern sandbur (Cenchrus echinatus L.), common sowthistle (Sonchus oleraceous L.), prickly sida (Sida spinosa L.), Italian ryegrass (Lolium multiflorum Lam.), common purslane (Portulaca oleracea L.), broadleaf signalgrass (Brachiaria platyphylla (Griseb.) Nash), common groundsel (Senecio vulgaris L.), common chickweed (Stellaria media (L.) Vill/Cyr.), tropical spiderwort (Commelina benghalensis L.), annual bluegrass (Poa annua L.), downy bromegrass (Bromus tectorum L.), itchgrass (Rottboellia cochinchinensis (L.) L.f.), quackgrass (Elytrigia repens (L.) Nevski), Canada horseweed (Erigeron Canadensis L.), field bindweed (Convolvulus arvensis L.), spotted spurge (Euphorbia maculata L.), common mallow (Malva sylvestris (=s silvestris) L.), and Russian thistle (Salsola kali L. ssp. Ruthenica (Iljin) Soo) were planted and treated preemergence with test chemicals formulated in a non-phytotoxic solvent mixture which included a surfactant.
# (§3) At the same time, plants selected from these weed species were treated with postemergence applications of some of the test chemicals formulated in the same manner. Plants ranged in height from 2 to 18 cm (1- to 4-leaf stage) for postemergence treatments. Treated plants and controls were maintained in a greenhouse for 12 to 14 days, after which time all species were compared to controls and visually evaluated. Plant response ratings, summarized in Table E, are based on a scale of 0 to 100 where 0 is no effect and 100 is complete control. A dash (-) response means no test result.
# pitted morningglory = type: in vivo, Ipomoea lacunosa
# Method in brief: as §1
# Canada horseweed = type: in vivo, Erigeron Canadensis
# From the text: as §2, §3
# mustard = type: in vivo, Brassica nigra
# Method in brief: as §1
# itchgrass = type: in vivo, Rottboellia cochinchinensis
# Method in brief: as §1
# goosegrass = type: in vivo, Eleusine indica
# Method in brief: as §1
# guineagrass = type: in vivo, Panicum maximum
# Method in brief: as §1
# broadleaf signalgrass = type: in vivo, Brachiaria platyphylla
# Method in brief: as §1
# common ragweed = type: in vivo, Ambrosia elatior
# Method in brief: as §1
# bermudagrass = type: in vivo, Cynodon dactylon
# Method in brief: as §1
# field bindweed = type: in vivo, Convolvulus arvensis
# Method in brief: as §1
# [1] = Postemergence, 500 g ai/ha, scale 0 to 100
# [2] = Postemergence, 250 g ai/ha, scale 0 to 100
# [3] = Preemergence, 62 g ai/ha, scale 0 to 100
# [4] = Preemergence, 125 g ai/ha, scale 0 to 100
# [5] = Preemergence, 250 g ai/ha, scale 0 (no effect) to 100 (complete control)
# [6] = Preemergence, 500 g ai/ha, scale 0 (no effect) to 100 (complete control)
# [7] = postemergence, 125 g ai/ha, scale 0 to 100
# [8] = postemergence, 62 g ai/ha, scale 0 to 100
smiles,measurement,setting,value
"CCn1nc(C(C)(C)C)cc1C(=O)Nc1cc(C(=O)N(C)C)ccn1 [Compound 156, 2-[[[3-(1,1-dimethylethyl)-1-ethyl-1H-pyrazol-5-yl]carbonyl]amino]-N,N-dimethyl-4-pyridinecarboxamide]","Plant response rating, Barnyardgrass",barnyardgrass; [1],98
same,"Plant response rating, Barnyardgrass",barnyardgrass; [2],98
same,"Plant response rating, Barnyardgrass",barnyardgrass; [3],100
same,"Plant response rating, Barnyardgrass",barnyardgrass; [4],100
same,"Plant response rating, Barnyardgrass",barnyardgrass; [5],100
same,"Plant response rating, Barnyardgrass",barnyardgrass; [6],100
same,"Plant response rating, Barnyardgrass",barnyardgrass; [7],95
same,"Plant response rating, Barnyardgrass",barnyardgrass; [8],90
same,"Plant response rating, Groundsel",common groundsel; [1],100
same,"Plant response rating, Groundsel",common groundsel; [2],100
same,"Plant response rating, Groundsel",common groundsel; [3],100
same,"Plant response rating, Groundsel",common groundsel; [4],100
same,"Plant response rating, Groundsel",common groundsel; [5],100
same,"Plant response rating, Groundsel",common groundsel; [6],100
same,"Plant response rating, Groundsel",common groundsel; [7],100
same,"Plant response rating, Groundsel",common groundsel; [8],80
same,"Plant response rating, Morningglory",pitted morningglory; [1],90
same,"Plant response rating, Morningglory",pitted morningglory; [2],80
same,"Plant response rating, Morningglory",pitted morningglory; [3],30
same,"Plant response rating, Morningglory",pitted morningglory; [4],100
same,"Plant response rating, Morningglory",pitted morningglory; [5],100
same,"Plant response rating, Morningglory",pitted morningglory; [6],100
same,"Plant response rating, Morningglory",pitted morningglory; [7],65
same,"Plant response rating, Morningglory",pitted morningglory; [8],10
same,"Plant response rating, Horseweed",Canada horseweed; [1],100
same,"Plant response rating, Horseweed",Canada horseweed; [2],100
same,"Plant response rating, Horseweed",Canada horseweed; [3],95
same,"Plant response rating, Horseweed",Canada horseweed; [4],100
same,"Plant response rating, Horseweed",Canada horseweed; [5],100
same,"Plant response rating, Horseweed",Canada horseweed; [6],100
same,"Plant response rating, Black Mustard",mustard; [1],100
same,"Plant response rating, Black Mustard",mustard; [2],100
same,"Plant response rating, Black Mustard",mustard; [3],100
same,"Plant response rating, Black Mustard",mustard; [4],100
same,"Plant response rating, Black Mustard",mustard; [5],100
same,"Plant response rating, Black Mustard",mustard; [6],100
same,"Plant response rating, Black Mustard",mustard; [7],100
same,"Plant response rating, Black Mustard",mustard; [8],98
same,"Plant response rating, Itchgrass",itchgrass; [1],98
same,"Plant response rating, Itchgrass",itchgrass; [2],95
same,"Plant response rating, Itchgrass",itchgrass; [3],100
same,"Plant response rating, Itchgrass",itchgrass; [4],100
same,"Plant response rating, Itchgrass",itchgrass; [5],100
same,"Plant response rating, Itchgrass",itchgrass; [6],100
same,"Plant response rating, Itchgrass",itchgrass; [7],95
same,"Plant response rating, Itchgrass",itchgrass; [8],80
same,"Plant response rating, Goosegrass",goosegrass; [1],98
same,"Plant response rating, Goosegrass",goosegrass; [2],98
same,"Plant response rating, Goosegrass",goosegrass; [3],95
same,"Plant response rating, Goosegrass",goosegrass; [4],95
same,"Plant response rating, Goosegrass",goosegrass; [5],100
same,"Plant response rating, Goosegrass",goosegrass; [6],100
same,"Plant response rating, Goosegrass",goosegrass; [7],98
same,"Plant response rating, Goosegrass",goosegrass; [8],95
same,"Plant response rating, Guineagrass",guineagrass; [1],98
same,"Plant response rating, Guineagrass",guineagrass; [2],95
same,"Plant response rating, Guineagrass",guineagrass; [3],90
same,"Plant response rating, Guineagrass",guineagrass; [4],100
same,"Plant response rating, Guineagrass",guineagrass; [5],100
same,"Plant response rating, Guineagrass",guineagrass; [6],100
same,"Plant response rating, Guineagrass",guineagrass; [7],90
same,"Plant response rating, Guineagrass",guineagrass; [8],60
same,"Plant response rating, Signalgrass",broadleaf signalgrass; [1],98
same,"Plant response rating, Signalgrass",broadleaf signalgrass; [2],95
same,"Plant response rating, Signalgrass",broadleaf signalgrass; [3],85
same,"Plant response rating, Signalgrass",broadleaf signalgrass; [5],90
same,"Plant response rating, Signalgrass",broadleaf signalgrass; [6],95
same,"Plant response rating, Signalgrass",broadleaf signalgrass; [7],85
same,"Plant response rating, Signalgrass",broadleaf signalgrass; [8],40
same,"Plant response rating, Ragweed",common ragweed; [1],98
same,"Plant response rating, Ragweed",common ragweed; [2],90
same,"Plant response rating, Ragweed",common ragweed; [3],50
same,"Plant response rating, Ragweed",common ragweed; [4],90
same,"Plant response rating, Ragweed",common ragweed; [5],95
same,"Plant response rating, Ragweed",common ragweed; [6],100
same,"Plant response rating, Ragweed",common ragweed; [7],90
same,"Plant response rating, Ragweed",common ragweed; [8],80
same,"Plant response rating, Bermudagrass",bermudagrass; [1],98
same,"Plant response rating, Bermudagrass",bermudagrass; [2],95
same,"Plant response rating, Bermudagrass",bermudagrass; [3],95
same,"Plant response rating, Bermudagrass",bermudagrass; [4],100
same,"Plant response rating, Bermudagrass",bermudagrass; [5],100
same,"Plant response rating, Bermudagrass",bermudagrass; [6],100
same,"Plant response rating, Bermudagrass",bermudagrass; [7],95
same,"Plant response rating, Bermudagrass",bermudagrass; [8],65
same,"Plant response rating, Bindweed, Field",field bindweed; [1],100
same,"Plant response rating, Bindweed, Field",field bindweed; [2],80
same,"Plant response rating, Bindweed, Field",field bindweed; [3],60
same,"Plant response rating, Bindweed, Field",field bindweed; [4],90
same,"Plant response rating, Bindweed, Field",field bindweed; [5],100
same,"Plant response rating, Bindweed, Field",field bindweed; [6],100
same,"Plant response rating, Bindweed, Field",field bindweed; [7],65
same,"Plant response rating, Bindweed, Field",field bindweed; [8],65
